Data from patent US20220081446A1, “CRYSTAL FORM OF 1,2,3-TRIAZOLO[1,5-A]PYRAZINES DERIVATIVE AND PREPARATION METHOD FOR CRYSTAL FORM” (Jiangsu Hengrui Medicine Co., Ltd., priority 2019, published 2022).

Experiments:
[1] = Long term/accelerated stability; type: physicochemical
Protocol: The crystal form A (Example 5) was placed at 25° C., 60% RH and 40° C., 75% RH to investigate its stability

[2] = Investigation of influencing factors (stability under heating, illumination, high humidity); type: physicochemical
Protocol: The sample of the crystal form A (Example 5) was spread out, and its stability was investigated under the conditions of heating (40° C., 60° C.), illumination (4500 Lux) and high humidity (RH 75%, RH 90%). The sampling was investigated over 30 days.

[3] = DVS (dynamic vapor sorption) hygroscopicity test; type: physicochemical
Protocol: According to the definition of hygroscopicity characteristics and hygroscopic weight gain in “9103 guiding principles for hygroscopicity of drugs” in the fourth volume of Chinese Pharmacopoeia (2015 Edition),
DVS indicates dynamic vapor sorption: the determination is carried out by SMS DVS Advantage at 25° C. with a humidity change of 50%-95%-0%-95%-50%, and the step of 10% (the last step is 5%) (The specific range of humidity is subject to the corresponding spectrum, and the methods listed here are those used in most cases), and the judgment standard is that dm/dt is not more than 0.02%.

HepG2 cells [4] = conditions: from PCT/CN2018/097170; cited from earlier work
[5] = tested on: HBV DNA replication in HepG2.2.15 cells; assay: In vitro anti-HBV activity test (quantitative analysis of intracellular HBV DNA); type: cell-based; conditions: HBV DNA by quantitative PCR
From the text: Test Example 1: In Vitro Anti-HBV Activity Test (Quantitative Analysis of Intracellular HBV DNA)
HepG2.2.15 cells were stable expression cell lines integrated with HBV genome, which can be secreted out of cells through replication, transcription, translation and packaging into virus particles with HBV DNA. In this study, the quantitative PCR method was used to quantitatively analyze the HBV DNA produced by the proliferation of HepG2.2.15 in vitro, thus determining the activity of the compounds in the present disclosure to inhibit HBV DNA replication through inhibiting the assembly of HBV capsid protein.
HepG2.2.15 cells were cultured in DMEM/high glucose medium (10% FBS, 400 μg/ml G418) and passaged every 3 days. On the day of experiment, fresh cell culture medium was used to prepare cell suspension, which was cultured with 40,000 cells/well in 96 well plate (Corning, #3599) under 5% carbon dioxide at 37° C. […] The extracted DNA was analyzed by HBV DNA quantitative PCR using Hepatitis B virus nucleic acid quantitative detection kit from Tepp biology, with the method specifically mentioned in the instructions of the kit. The quantitative standard curve was determined in parallel experiment using the own standard sample of the kit. Each sample was converted quantitatively based on the standard curve. […]

HBV capsid protein = HBV capsid protein (Hepatitis B virus genotype D subtype ayw, UniProt P03146); conditions: from PCT/CN2018/097170; cited from earlier work
HBV capsid protein, sequence (P03146 whole entry): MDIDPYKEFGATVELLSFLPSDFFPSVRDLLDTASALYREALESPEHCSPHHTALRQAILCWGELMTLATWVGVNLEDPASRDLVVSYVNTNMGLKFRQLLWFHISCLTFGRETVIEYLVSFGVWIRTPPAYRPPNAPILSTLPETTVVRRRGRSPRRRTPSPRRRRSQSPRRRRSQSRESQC

[6] = from PCT/CN2018/097170; cited from earlier work
HepG2 cells [7] = conditions: read-out: CC50 (proliferation inhibition), 72 hours, CellTiter-Glo
Protocol: HepG2 cells taken in logarithmic growth stage were prepared into the cell suspension through digestion with trypsin, and then the suspension was cultured with 6,000 cells/well in 96-well plate (96-well White/Clear Flat Bottom plate) under 5% carbon dioxide at 37° C. for 16-20 hours. On the second day, the compound was dissolved in pure DMSO with the concentration of 20 mM, and then the gradient dilution of the compound was carried out by using Automatic pipetting workstation (Bravo) with the dilution times of 3, where there were 8 concentration points for each compound, and the control well was DMSO; next, the compound with each concentration treated by DMSO was diluted 200 times using EMEM (containing 10% FBS) medium. The cell culture plate inoculated on the first day was taken out, and then the medium in the well plate was sucked out by using the negative pressure suction device. Into each well, the prepared medium containing each concentration of compound was added respectively, which was cultured with 100 μl/well at 37° C. for 72 hours. On the fifth day, the 96-well cell plate was taken out, and the freshly prepared CellTiter Glo was added into each well with 100 μL/well, left to stand for 5-10 minutes, sealed for the bottom of the 96-well plate with a white back cover film (PerkinElmer), placed into the Microplate Reader, and measured for the Luminescence signal by the reader.

C[C@H]1Cn2nnc(C(=O)N[C@H](C)C(F)(F)F)c2CN1C(=O)Nc1ccc(F)c(F)c1 [Crystal form A, (S)-N^5-(3,4-difluorophenyl)-6-methyl-N^3-((R)-1,1,1-trifluoropropan-2-yl)-6,7-dihydro-[1,2,3]triazolo[1,5-a]pyrazine-3,5(4H)-dicarbonamide]
Purity % ([1]; 25° C., 60% RH, 1 month): 98.3% | Purity % ([1]; 25° C., 60% RH, 2 months): 98.3% | Purity % ([1]; 25° C., 60% RH, 3 months): 98.3% | Purity % ([1]; 25° C., 60% RH, 6 months): 98.3% | Purity % ([1]; 25° C., 60% RH, start): 98.3% | Purity % ([1]; 40° C., 75% RH, 1 month): 98.3% | Purity % ([1]; 40° C., 75% RH, 2 months): 98.3% | Purity % ([1]; 40° C., 75% RH, 3 months): 98.3% | Purity % ([1]; 40° C., 75% RH, 6 months): 98.2% | Purity % ([1]; 40° C., 75% RH, start): 98.3% | physical and chemical stability ([1]; stored for 6 months, long-term (25° C., 60% RH) and acceleration (40° C., 75% RH)): excellent physical and chemical stability | Color and character ([2]; 4500 Lux, day 5): white solid | Purity % ([2]; 4500 Lux, day 5): 98.27% | Color and character ([2]; 4500 Lux, day 10): white solid | Purity % ([2]; 4500 Lux, day 10): 98.27% | Color and character ([2]; 4500 Lux, day 30): white solid | Crystal form ([2]; 4500 Lux, day 30): No changed | Purity % ([2]; 4500 Lux, day 30): 98.30% | Color and character ([2]; RH 75%, day 5): white solid | Purity % ([2]; RH 75%, day 5): 98.26% | Weight gain % ([2]; RH 75%, day 5): 2.28% | Color and character ([2]; RH 75%, day 10): white solid | Purity % ([2]; RH 75%, day 10): 98.29% | Weight gain % ([2]; RH 75%, day 10): 2.72% | Color and character ([2]; RH 75%, day 30): white solid | Crystal form ([2]; RH 75%, day 30): No changed | Purity % ([2]; RH 75%, day 30): 98.29% | Weight gain % ([2]; RH 75%, day 30): 6.68% | Color and character ([2]; RH 90%, day 5): white solid | Purity % ([2]; RH 90%, day 5): 98.26% | Weight gain % ([2]; RH 90%, day 5): 2.93% | Color and character ([2]; RH 90%, day 10): white solid | Purity % ([2]; RH 90%, day 10): 98.28% | Weight gain % ([2]; RH 90%, day 10): 3.19% | Color and character ([2]; RH 90%, day 30): white solid | Crystal form ([2]; RH 90%, day 30): No changed | Purity % ([2]; RH 90%, day 30): 98.30% | Weight gain % ([2]; RH 90%, day 30): 10.70% | Color and character ([2]; heating 40° C., day 5): white solid | Purity % ([2]; heating 40° C., day 5): 98.28% | Color and character ([2]; heating 40° C., day 10): white solid | Purity % ([2]; heating 40° C., day 10): 98.31% | Color and character ([2]; heating 40° C., day 30): white solid | Crystal form ([2]; heating 40° C., day 30): No changed | Purity % ([2]; heating 40° C., day 30): 98.32% | Color and character ([2]; heating 60° C., day 5): white solid | Purity % ([2]; heating 60° C., day 5): 98.26% | Color and character ([2]; heating 60° C., day 10): white solid | Purity % ([2]; heating 60° C., day 10): 98.27% | Color and character ([2]; heating 60° C., day 30): white solid | Crystal form ([2]; heating 60° C., day 30): No changed | Purity % ([2]; heating 60° C., day 30): 98.30% | physical and chemical stability ([2]; illumination, 40° C., 60° C., high humidity 75% and 90%, storing for 30 days): good physical and chemical stability | Color and character ([2]; start, day 0): white solid | Purity % ([2]; start, day 0): 98.30% | hygroscopicity class ([3]; 70% RH): no or little hygroscopicity | hygroscopicity class ([3]; 90% RH): slight hygroscopicity, or no/little hygroscopicity | crystal form after DVS detection (XRPD) ([3]; before vs after DVS): remained unchanged | desorption process ([3]; humidity change from 0% to 95% RH): consistent with the adsorption process | hygroscopic weight gain ([3]; normal storage condition, 25° C. and 60% RH): about 0.07%

C[C@H]1Cn2nnc(C(=O)N[C@H](C)C(F)(F)F)c2CN1C(=O)Nc1ccc(F)c(F)c1 [Compound B, (S)-N^5-(3,4-difluorophenyl)-6-methyl-N^3-((R)-1,1,1-trifluoropropan-2-yl)-6,7-dihydro-[1,2,3]triazolo[1,5-a]pyrazine-3,5(4H)-dicarbonamide]
effect on the proliferation inhibition of HepG2 cells in vitro (HepG2 cells [4]): no or little effect | Emax (maximum inhibitory effect on HBV DNA replication) [5]: 100% | EC50 ([5]; read-out: EC50 (inhibition of HBV DNA replication)): 0.019 µM | inhibitory effect on the normal assembly of HBV capsid protein (HBV capsid protein): obvious inhibitory effect | bioavailability [6]: high | pharmacokinetic absorption [6]: good | CC50 (HepG2 cells [7]): > 100 µM
